| melting point | Compound |
| --- | --- |
| 75 to 78 °C | ClCCOc1cccc2ncccc12 |
| 85 to 87 °C | C=CCOC(=O)c1ccc(N=C(OC)c2ccc(OC)c(C34CC5CC(CC(C5)C3)C4)c2)cc1 |
| 94 to 96 °C | O=C(O)c1cc(C(F)(F)F)cc(F)c1F |
| 170 °C | CCS(=O)(=O)Nc1cccc(COc2cc(F)cc(Nc3ccc(I)cc3F)c2C(N)=O)c1 |
| 122 to 124 °C | Cc1nc(C(O)(c2nc(C)c(C)s2)C(F)(F)F)sc1C |
| 114 to 117 °C | Cc1nc(C)c(Cl)c(NCc2nccc(OCCCCSCCn3c([N+](=O)[O-])cnc3C)c2C)n1 |
| 185 to 188 °C | O=C1C2CCCC2=Nc2ccccc2N1Cc1ccc([N+](=O)[O-])cc1 (stereo not given) |
| 143 °C | CC(=NO)c1ccnc(Cl)c1 |
| 61 to 70 °C | CC(CCN(C)C1CCC(c2ccc3[nH]c(=O)oc3c2)CC1)c1ccccc1 (stereo not given) |
| 232 to 234 °C | CCn1cc(C(=O)O)c(=O)c2cc(F)c(N3CCNC(c4cccs4)C3)cc21 (stereo not given) |
| 142 to 146 °C | COc1ccccc1N1CCN(CCCNC(=O)c2cccc3c(=O)c(C)c(CCc4ccccc4)oc23)CC1 |
| 213 to 214 °C | CCc1sc2ncnc(N)c2c1-c1ccc(NC(=O)c2ccccc2)cc1 |
| 66.6 to 66.7 °C | FC(F)(F)c1ccc2nc(N3CCN(c4ncncc4Cl)CC3)[nH]c2c1 |
| 90 to 91 °C | ClCc1coc(-c2ccc(Cl)s2)n1 |
| 104 °C | COc1ccc(OCCCN(Cc2cccc(O)c2)c2nc3ccccc3o2)cc1 |
| 73 to 74 °C | C=C(c1ccc(F)cc1)c1ccccc1Cl |
| 87 to 89 °C | Cc1ccc(C(=O)c2ccccc2C2=NCCN2C(C)C)cc1 |
| 166 to 167 °C | Cc1cccc(C)c1SC(CC(C)C)c1c(O)cc(-c2ccccc2)oc1=O (stereo not given) |
| 191 to 193 °C | O=C1N(Cc2ccc3ccccc3c2)c2ccccc2N=C2CCCC12Cc1ccc2ccccc2c1 (stereo not given) |
| 217 to 220 °C | O=C(O)c1ccc(Cl)nc1NCc1ccncc1 |
| 190 to 192 °C | COc1ccc(/C(=C/C(=O)O)c2cc(C)cc(Cl)c2)cc1 |
| 131 to 134 °C | N#Cc1cc(C(=O)NNC(=O)c2occc2-c2cccc(OCCc3ccccc3)c2)ccc1O |

| melting point | Compound |
| --- | --- |
| 160 to 162 °C | N#Cc1c(N2CCCCC2)cc(-c2ccco2)c2c1Cc1ccccc1-2 |
| 222 to 224 °C | CCC(CC)c1ccc(Cl)c2nc3n(c12)CC(=O)N3c1cnc(N(C)C)cc1C |
| 78 to 79 °C | C=CCNc1nc(NCC=C)c2cc(Cl)ccc2n1 |
| 188 to 189 °C | O=C(Nc1ccc([N+](=O)[O-])cc1)C(F)F |
| 187 to 189 °C | O=C1c2ccc(OC3CC3)cc2CCC1CN1CCC(O)(c2ccccc2)CC1 (stereo not given) |
| 201 to 202 °C | Cc1ccn2c(C)c(-c3ccc4sc(=O)n(Cc5cccnc5)c4c3)nc2c1 |
| 56 to 58 °C | CC(C)c1nc(CN(C)C(=O)N[C@@H](C)C(=O)N[C@@H](Cc2ccccc2)C[C@H](O)[C@H](Cc2ccccc2)NC(=O)OCc2cncs2)cs1 |
| 54 to 56 °C | CCOC(=O)C(C)c1cc(C(C)(C)C)c(O)c(C(C)(C)C)c1 (stereo not given) |
| 108 to 110 °C | C#CCOc1ccc([N+](=O)[O-])cc1 |
| 107 to 110 °C | CCCCC(=O)c1ccc(O)c(Cl)c1Cl |
| 208 to 210 °C | C[Si](C)(C)c1ccc2cc(C(=O)Nc3ccc(N4CCC4)nc3)n(Cc3cccc(F)c3)c2c1 |
| 128 °C | COP(=O)(Nc1ccc([N+](=O)[O-])c(NCCc2ccccc2)c1)OC |
| 196 to 198 °C | C#CCn1ncc(-c2ccc(S(C)(=O)=O)cc2)c(-c2ccc(F)cc2)c1=O |
| 253 °C | O=C1NC(=O)C(=Cc2ccc(-c3cc(C4CCCCC4)c4oc(C(Cl)(Cl)Cl)nc4c3)nc2)S1 |
| 86 to 87 °C | CC(=O)OC1C=C(C)C(=O)CC(C)(C)C1OC(=O)c1ccc(Cl)cc1 (stereo not given) |
| 91 to 92 °C | COCCNC(=O)c1cccc(-c2cccc3oc(Cc4cccc(C(F)(F)F)c4)cc23)c1 |
| 171 to 173 °C | CCOC1COCC1Oc1cc(C(=O)Nc2c(Cl)cncc2Cl)ccc1OC (stereo not given) |
| 51.5 to 52 °C | CCOc1noc2c1CN(C(=O)OC)CCC2 |
| 256 to 257 °C | Cc1ccc(S(=O)(=O)n2c(-c3cn(C)c4ccc(O)cc34)cc3cccnc32)cc1 |
| 229 to 231 °C | CNC(=O)c1ccnc(NC(=O)N2CCC3(CC2)Cc2ccccc2C3)c1 |
| 114 to 116 °C | O=C(N[C@@H](CO)c1nc2cc(Br)ccc2[nH]1)c1ccc(C(=O)N2CCCC2)c(Br)c1 |
| 185 to 198 °C | Cc1cc(C)c(C)c(-c2cc3cnc(NCCCN4CCN(C)CC4)nc3nc2NC(=O)NC(C)(C)C)c1C |

| melting point | Compound |
| --- | --- |
| 106 to 108 °C | NC(=S)c1ccccc1Nc1cccc(C(F)(F)F)c1 |
| 120 to 122 °C | O=S(=O)(Nc1ccc2c(OCc3ccc(I)cc3)cccc2c1)C(F)(F)F |
| 55 to 57 °C | COc1nc2c(Cl)cccc2s1 |
| 168 to 169 °C | N#Cc1cccc(CCc2nnc(-c3ccc4nccn4c3)o2)c1 |
| 151 °C | CCOc1ccc([N+](=O)[O-])c(NC2Cc3ccccc3C2)c1 |
| 199 to 200 °C | O[C@@H]1[C@H](O)CS[C@H]1n1cnc2c(NCc3cccc(I)c3)ncnc21 |
| 182 to 183 °C | O=S(=O)(NCC(O)(Cn1cncn1)c1ccc(Cl)cc1Cl)c1ccc(Cl)cc1 (stereo not given) |
| 151 to 152 °C | O=c1[nH]cc(Cc2ccccc2)cc1Br |
| 304 to 306 °C | CC(C)(C)CC(=O)Nc1ccc2ncn3c(=O)c(C(=O)O)cnc3c2c1 |
| 142 to 143 °C | CCOc1nn(Cc2cc(OCc3nc(-c4ccccc4)oc3C)no2)cc1CCC(=O)O |
| 130 to 132 °C | CC(C)NC(=O)OC1SCN(c2ccccc2)C1=O (stereo not given) |
| > 280 °C | Cc1c(F)c(F)c(O)c2c(=O)c(C(=O)O)cn(-c3cc(N)c(F)cc3F)c12 |
| 130 to 132 °C | C[C@]1(c2ccccc2)C[C@@]1(NS(=O)(=O)c1ccc(-c2cc(C(F)(F)F)on2)s1)C(=O)O |
| 77 to 88 °C | CCC1(C)CC2(C(=O)N(C)C(=O)N2C)C(C)C(C)(CC)N1C (stereo not given) |
| 278 to 290 °C | COc1ccc2nc3ccc(C(=O)O)cn3c(=O)c2c1 |
| 161 to 163 °C | Nc1ccc(CC(NC(=O)C(c2ccccc2)c2ccccc2)c2ccccc2)cc1 (stereo not given) |
| 135 to 140 °C | O=C(OCc1ccccc1)C1Cc2ccsc2CN1Cc1ccccc1 (stereo not given) |
| 118 to 121 °C | CCc1nn2c(-c3ccc(Cl)cc3Cl)cccc2c1N(CC)CC |
| > 350 °C | C[C@@H](Nc1ncnc2[nH]c(-c3ccc(C(=O)O)cc3)cc12)c1ccccc1 |
| 99 to 102 °C | O=C(CCC1CCCCCCCCCCC1)C1=C(O)COC1=O |
| 78 to 79 °C | CCOC(=O)c1csc(Cc2ccccc2)n1 |

| Compound | melting point |
| --- | --- |
| COC(=O)Nc1nc(C)c(-c2nc3ccccc3c(=O)n2-c2ccccc2)s1 | > 275 °C |
| CNC(=C[N+](=O)[O-])N(C)Cc1ccc(Cl)nc1 | 103 to 104 °C |
| CCOC1=CC2=CCC3C4CCC(=O)C4(C)CCC3C2(C)CC1 (stereo not given) | 146 to 149 °C |
| OC(CCN1CC=C(c2ccccc2)CC1)c1ccc(CCc2ccc(Cl)cc2)cc1 (stereo not given) | 158 to 160 °C |
| Cc1cc(C(=O)NCO)ncc1C(c1c(F)ccc(F)c1F)S(=O)(=O)CCC(F)(F)C(F)(F)F (stereo not given) | 126 to 128 °C |

Reference: a melting point compilation (Tetko et al.; mined from patent text by program, amines drawn as free bases though some values may be those of a salt)
